# Test results reported in US10709714B2 (CL BioSciences LLC, priority 2013, dated 2020).
# Entries after “also recorded” stand apart in the source; their conditions may differ. Marks after values point to notes of the source that are not given here.
# Legend:
# ovariectomized CD-1 mice = experiment: Bone strength (Instron), Model 1 mouse OVX; assay type: in vivo
# ovariectomized Mastomys [1] = experiment: Bone histomorphometry, Model 3 Mastomys OVX; assay type: in vivo; conditions: GA single s.c., 8 weeks
# Excerpt: Patterns of bone mineralization (BM: decreased), resorption cavities (RC: increased) and osteoclasts (stained multinuclear cells (two arrows): increased) were affected by OVX. These effects were reversed by drug treatment.
# The gastrin-antagonist treatment reversed these phenomena (FIG. 55).
# ovariectomized Mastomys [2] = experiment: Bone strength (Instron), Model 3 Mastomys OVX; assay type: in vivo
# Procedure: Finally, bone strength was examined in Mastomys using an Instron device. Femurs were loaded to failure in four-point bending. Tests were conducted with a deflection rate of 0.05 mm/sec using a servohydraulic testing machine (Instron model 8874; Instron Corp., Norwood, Mass., USA). […] Measurements of bone strength using the Instron device confirmed the utility of the gastrin-antagonist in reversing the OVX-mediated bone phenotype.
# ovariectomized Mastomys [3] = experiment: Circulating blood markers, Model 3 Mastomys OVX; assay type: in vivo
# Procedure: CON=control animals, OVX=ovariectomized animals, OVX+GA=gastrin antagonist treated ovariectomized animals. Mean±SEM. *p<0.05 vs. CON, **p<0.05 vs. OVX alone.
# Circulating bone biomarkers were also altered by OVX. Specifically, PINP was increased (0.16±0.03 ng/ml vs. 0.13±0.01, p<0.05) as was CTx-1 (0.24±0.17 ng/ml vs. 0.03±0.03, p<0.05) while osteocalcin was elevated (1.6±1.1 ng/ml vs. 0.4±0.16, p<0.05). Treatment with the antagonist attenuated each of these three ovariectomy-mediated alterations.
# CCK2 receptor = target: T1, CCK2 receptor (Homo sapiens, UniProt P32239); experiment: Gastrin-stimulated cAMP production and calcitonin release/transcription in MTC-SK cells; assay type: cell-based; conditions: MTC-SK cells
# T1 construct: Gastrin stimulated both cAMP as well as calcitonin release from the well-differentiated human MTC cell line, MTC-SK; endogenous in cells; host or cells: MTC-SK (human medullary thyroid carcinoma cell line)
# T1 sequence (P32239 1-447): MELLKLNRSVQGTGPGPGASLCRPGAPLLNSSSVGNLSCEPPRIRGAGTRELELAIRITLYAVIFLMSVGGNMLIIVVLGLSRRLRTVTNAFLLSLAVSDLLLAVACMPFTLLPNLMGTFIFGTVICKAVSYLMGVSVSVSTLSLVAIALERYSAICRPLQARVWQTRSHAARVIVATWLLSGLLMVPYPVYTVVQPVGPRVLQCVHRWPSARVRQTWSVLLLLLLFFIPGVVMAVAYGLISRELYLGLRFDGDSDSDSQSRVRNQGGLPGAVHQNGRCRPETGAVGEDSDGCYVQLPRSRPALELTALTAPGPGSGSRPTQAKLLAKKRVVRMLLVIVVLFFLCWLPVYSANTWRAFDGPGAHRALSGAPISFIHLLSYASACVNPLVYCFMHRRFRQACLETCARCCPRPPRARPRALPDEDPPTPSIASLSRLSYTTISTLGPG
# [4] = test system: human PTH cells co-cultured with MTC-SK cell line; experiment: PTH cell / MTC-SK co-culture: PTH and calcitonin transcription and secretion; assay type: cell-based; conditions: preincubation 10 mins, YF476 10 nM
# Procedure: Human PTH cells isolated from surgical specimens were co-cultured with the MTC-SK cell line. […] These effects could be reversed by preincubation (10 mins) with the selective CCK2 receptor antagonist, YF476 (10 nM). […] PET=polyester membrane ([…]).
# These effects were reversed by preincubation with the selective CCK2 antagonist, YF476.
# [5] = test system: calvarial osteoblasts, hFOB, BMMSCs; experiment: Gene expression in bone-derived cells (ALKP, M-CSF, RANKL); assay type: cell-based, mouse, human; conditions: YF476 1 nM, preincubation
# Procedure: This was reversed by the selective CCK2 receptor antagonist, YF476 (1 nM).
# ovariectomized CD rats = experiment: MicroCT of trabecular and cortical bone, Model 2 rat OVX
# Excerpt: Microcomputed tomography (MicroCT) and bone bending as well as osmium uptake and PCR were used to evaluate bone dynamics and osteoporotic features in the different animal models. MicroCT assesses density and volume of both the trabecular and cortical bones. Measurements of the radius and circumference of the cortical bone can be undertaken. Calculations of the connectivity density, the structural model index (SMI) as well as the stiffness (all measures of structure) of the bone can be made. The polar moment of inertia (pMOI) as well as fracture and workloads identify the underlying bone strength.
# Both mice and rats were exposed to the PPI, omeprazole, while the Mastomys were exposed to the H2 Receptor antagonist, loxitidine. GA administration was a single subcutaneous injection at the start of acid inhibition. Pharmacokinetically, this dose ranges between 15-20 nmol over an 8 week period.
# Three groups were included for each animal model: a) Group A=placebo/saline treated (no OVX/Controls); b) Group B=OVX+Acid Inhibitory therapy (OVX); and c) Group C=GA treated ovariectomized animals (OVX+GA). At the termination of study (2 months), we evaluated whether the GA reversed the OVX-mediated alterations in bone parameters (microCT, bone strength and histomorphometry as well as circulating markers).
# At the start of GA treatment, animals were 98 days (3.2 months) and at study termination, they were 163 days (5.4 months).
# [6] = test system: calvarial osteoblasts, hFOB, BMMSCs; experiment: Bone mineralization of bone-derived cells (fluorescent binding to hydroxyapatite); assay type: cell-based, mouse, human; conditions: pre-incubation
# Procedure: The binding of fluorescent Osteomalge to the hydroxyapatite portion of mineralized nodules was measured.
# [7] = OVX CD-1 mice + omeprazole, GA 15 ug/animal single s.c., 8 weeks
# [8] = OVX CD-1 mice, GA-treated vs control
# [9] = OVX Mastomys + loxitidine, GA 10 ug/animal single s.c., 8 weeks
# [10] = OVX Mastomys, GA-treated vs control
# [11] = OVX Mastomys + loxitidine, GA 10 ug/animal single s.c., 8 weeks, listed as GA
# [12] = OVX Mastomys + loxitidine, GA 10 ug/animal single s.c., 8 weeks, listed as antagonist
# [13] = OVX CD rats + omeprazole, GA 50 ug/animal single s.c., 8 weeks, cortical bone
# [14] = OVX CD rats + omeprazole, GA 50 ug/animal single s.c., 8 weeks, trabecular bone
# [15] = OVX CD rats + omeprazole, GA 50 ug/animal single s.c., 8 weeks, trabecular bone, listed as GA
# [16] = OVX CD rats + omeprazole, GA 50 ug/animal single s.c., 8 weeks, trabecular bone, listed as Gastrin antagonist
# [17] = OVX CD rats, GA-treated vs control, cortical bone
# [18] = OVX CD rats, GA-treated vs control, trabecular bone
smiles,measurement,setting,value
"CNc1cccc(NC(=O)N[C@@H]2N=C(c3ccccn3)c3ccccc3N(CC(=O)C(C)(C)C)C2=O)c1 [YF476, netazepide]",Max Load,ovariectomized CD-1 mice; [7],44.1
same,Stiffness,ovariectomized CD-1 mice; [7],285
same,Total Work,ovariectomized CD-1 mice; [7],19.4
same,Yield (Stiffness),ovariectomized CD-1 mice; [7],256
same,Fracture Load,"ovariectomized CD-1 mice; OVX CD-1 mice + omeprazole, GA 15 ug/animal single s.c., 8 weeks, listed as GA",42.8
same,Fracture Load,"ovariectomized CD-1 mice; OVX CD-1 mice + omeprazole, GA 15 ug/animal single s.c., 8 weeks, listed as gastrin antagonist",43±6
same,% Change Fracture Load,ovariectomized CD-1 mice; [8],−24%*
same,% Change Max Load,ovariectomized CD-1 mice; [8],−28%*
same,% Change Stiffness,ovariectomized CD-1 mice; [8],−3%**
same,% Change Total Work,ovariectomized CD-1 mice; [8],−4%**
same,% Change Yield (Stiffness),ovariectomized CD-1 mice; [8],−5%**
same,"effect on OVX changes in bone mineralization, resorption cavities and TRAP-positive osteoclasts",ovariectomized Mastomys [1],reversed
same,Fracture Load,ovariectomized Mastomys [2]; [9],42.1
same,Max Load,ovariectomized Mastomys [2]; [9],42.2
same,Stiffness,ovariectomized Mastomys [2]; [9],311
same,Total Work,ovariectomized Mastomys [2]; [9],14.8
same,Yield (Stiffness),ovariectomized Mastomys [2]; [9],280
same,% Change Fracture Load,ovariectomized Mastomys [2]; [10],−25%
same,% Change Max Load,ovariectomized Mastomys [2]; [10],−25%
same,% Change Stiffness,ovariectomized Mastomys [2]; [10],−6%**
same,% Change Total Work,ovariectomized Mastomys [2]; [10],"55%*^,**"
same,% Change Yield (Stiffness),ovariectomized Mastomys [2]; [10],−6%**
same,CTX-1,ovariectomized Mastomys [3]; [9],0.1 ng/mL
same,ESR (circulating estrogen),ovariectomized Mastomys [3]; [9],2.54 pg/mL
same,Osteocalcin,ovariectomized Mastomys [3]; [9],1.13 ng/mL
same,PINP,ovariectomized Mastomys [3]; [9],0.13 ng/mL
same,Gastrin (circulating),ovariectomized Mastomys [3]; [11],2703 pg/mL
same,PTH (circulating),ovariectomized Mastomys [3]; [11],151 pg/mL
same,Gastrin (circulating),ovariectomized Mastomys [3]; [12],2704 ± 430 pg/mL
same,PTH (circulating),ovariectomized Mastomys [3]; [12],150 ± 37 pg/mL
same,% Change CTX-1,ovariectomized Mastomys [3]; [10],+230%
same,% Change ESR,ovariectomized Mastomys [3]; [10],−70%*
same,% Change Gastrin,ovariectomized Mastomys [3]; [10],−27%**
same,% Change Osteocalcin,ovariectomized Mastomys [3]; [10],+13%
same,% Change PINP,ovariectomized Mastomys [3]; [10],"0%*^, **"
same,% Change PTH,ovariectomized Mastomys [3]; [10],"−48%*^, **"
same,effect on gastrin-mediated calcitonin secretion,CCK2 receptor,reversed
same,effect on gastrin-stimulated cAMP production,CCK2 receptor,reversed
same,effect alone on cAMP production,CCK2 receptor; without gastrin,no significant effect
same,effect on gastrin effects in co-culture,[4],reversed
same,effect on gastrin-inhibited gene expression,[5],reversed and normalized
same,BS,ovariectomized CD rats; [13],43.3
same,BV/TV,ovariectomized CD rats; [13],0.965
same,Ct. Th,ovariectomized CD rats; [13],0.68
same,pMOI,ovariectomized CD rats; [13],14.03
same,"Dens (Apparent Density, cortical)","ovariectomized CD rats; OVX CD rats + omeprazole, GA 50 ug/animal single s.c., 8 weeks, cortical bone, listed as GA",1098
same,"Dens (Apparent Density, cortical)","ovariectomized CD rats; OVX CD rats + omeprazole, GA 50 ug/animal single s.c., 8 weeks, cortical bone, listed as Gastrin-antagonist",1098±24
same,BS,ovariectomized CD rats; [14],154
same,BV/TV,ovariectomized CD rats; [14],0.189
same,Conns-Dens,ovariectomized CD rats; [14],68.58
same,Tb. N,ovariectomized CD rats; [14],2.17
same,Tb. Sp,ovariectomized CD rats; [14],0.48
same,Tb. Th,ovariectomized CD rats; [14],0.09
same,"Dens (Apparent Density, trabecular)",ovariectomized CD rats; [15],200.5
same,SMI,ovariectomized CD rats; [15],1.33
same,"Dens (Apparent Density, trabecular)",ovariectomized CD rats; [16],204±27
same,SMI,ovariectomized CD rats; [16],1.3±0.17
same,% Change BS,ovariectomized CD rats; [17],−13%*
same,% Change BV/TV,ovariectomized CD rats; [17],0%**
same,% Change Ct. Th,ovariectomized CD rats; [17],+12%*
same,"% Change Dens (Apparent Density, cortical)",ovariectomized CD rats; [17],"−4%*^,**"
same,% Change pMOI,ovariectomized CD rats; [17],−22%*
same,% Change BS,ovariectomized CD rats; [18],−21%
same,% Change BV/TV,ovariectomized CD rats; [18],−30%**
same,% Change Conns-Dens,ovariectomized CD rats; [18],+8%
same,"% Change Dens (Apparent Density, trabecular)",ovariectomized CD rats; [18],"−30%*^, **"
same,% Change SMI,ovariectomized CD rats; [18],+143%*
same,% Change Tb. N,ovariectomized CD rats; [18],−18%**
same,% Change Tb. Sp,ovariectomized CD rats; [18],+9%**
same,% Change Tb. Th,ovariectomized CD rats; [18],−13%**
same,effect on gastrin inhibition of mineralization,[6],inhibited; also recorded: not reversed
